Experimental data from article PMC5923120, “Acylhydrazones as Antifungal Agents Targeting the Synthesis of Fungal Sphingolipids” (Antimicrobial Agents and Chemotherapy, 2018).
Converted amounts (≈) assume the structure as drawn. Like-named read-outs stand apart in the source and are kept apart here.

How the values were obtained:
[1] = test system: Cryptococcus neoformans H99; assay: Synergistic assay (FIC), CN; assay type: cell-based
Experimental: (§1) Synergistic activity was assayed by calculating the fractional inhibitory index (FIC). Briefly, in a 96-well plate, drug A (D13) was serially diluted from 16 to 0.015 μg/ml (11 dilutions), whereas drug B (either fluconazole, amphotericin B, caspofungin, itraconazole, or voriconazole) was serially diluted from 12 to 0.19 μg/ml for fluconazole, 5 to 0.078 μg/ml for amphotericin B, or 8 to 0.007 μg/ml for caspofungin, itraconazole, or voriconazole (seven dilutions). The FIC was defined as (MIC combined/MIC drug A alone) + (MIC combined/MIC drug B alone). Synergism was categorized with the following scale: strongly synergistic effect, FIC of <0.5; synergistic effect, FIC of <1; additive effect, FIC of 1; no effect, FIC between 1 and 2; antagonistic effect, FIC of >2.

in vitro [2] = conditions: monkey
Excerpt: A commercially available kit was used to examine permeability through the blood-brain barrier (BBB kit MBT-24; Pharmaco Cell Co. Ltd.). This kit allows us to perform a permeability assay using an in vitro reproduction of the blood-brain barrier using monkey brain. Briefly, in a 12-well plate there is a triple culture, with endothelial cells in the luminal part and perycites and astrocytes in the abluminal side connected by tight junctions. The luminal side of the well represents the blood side, whereas the abluminal side represents the brain side. The integrity of the blood-brain barrier is assessed by the measurement of TEER, which indicates the formation of tight junctions. To have an efficient system, the TEER should be >150 Ω cm^2. The kit is kept frozen at −80°C until it is ready to use. […] After that it takes 3 days for the cells to adjust, and then the plate can be used in 4 days for the experiment. For drug testing, after assessing the TEER, the drugs were added in the chosen medium at the desired concentrations and at different time points. At the end of each time point the TEER was measured to assess if the BBB was still intact. After that the medium was collected and subjected to MS to measure the concentration of the samples in the brain side and calculate the permeability value (Papp).

Candida albicans A39 = assay: Synergistic assay (FIC), CA; assay type: cell-based
Experimental: as §1

Candida albicans 3022 = assay: Synergistic assay (FIC), CA Flu-R; assay type: cell-based; conditions: Candida albicans, 3022; CA Flu-R
Experimental: as §1

Candida krusei = assay: Synergistic assay (FIC), CK Flu R1; assay type: cell-based; conditions: Pichia kudriavzevii
Experimental: as §1

Candida krusei ATCC 6258 = assay: Synergistic assay (FIC), CK Flu R2; assay type: cell-based; conditions: Pichia kudriavzevii, ATCC6258
Experimental: as §1

C. neoformans [3] = assay: In vitro susceptibility testing (MIC80); assay type: cell-based, Cryptococcus neoformans
Experimental: MICs were determined by following the methods of the Clinical and Laboratory Standards Institute (CLSI), with modifications. […] The compounds were serially diluted from 32 to 0.03 μg/ml in a 96-well plate. The inoculum was prepared as described in CLSI protocol M27A3 guidelines ([39]). […] The MICs were determined as the lowest concentration of the compound that inhibited 80% of growth compared to the control.

J774 = assay: In vitro toxicity (MTT), J774; assay type: cell-based, murine; conditions: Mus musculus, cytotoxicity
Experimental: (§2) The murine macrophage cell line J774 and human cancer cell lines A549 and HepG2 were maintained in DMEM containing 10% fetal bovine serum (FBS) and 1% penicillin-streptomycin. At passage 7, 10^5 cells/well in DMEM containing 10% FBS were transferred into 96-well plates and cultured for 14 h for the cells to adhere to the wells. The compounds were added to the cells at concentrations ranging from 0.03 to 128 μg/ml. The wells without the compound served as controls. […] After 24 or 48 h, the supernatant was removed and 50 μl of 5-mg/ml 3-(4,5-dimethylthiazol-2-yl)-2,5-diphenyltetrazoliumbromide (MTT) solution in phosphate-buffered saline (PBS) was added to each well. The plates were incubated for an additional 4 h. The formazan crystal formed inside the cell was dissolved by adding 50 μl of dimethyl sulfoxide (DMSO). The optical density was measured at 570 nm.

A549 = assay: In vitro toxicity (MTT), A549; assay type: cell-based; conditions: Homo sapiens, cytotoxicity
Experimental: as §2

HepG2 = assay: In vitro toxicity (MTT), HepG2; assay type: cell-based; conditions: Homo sapiens, cytotoxicity
Experimental: as §2

C. neoformans [4] = assay: In vitro killing assay; conditions: for K100*: minimum concentration that kills 100% of C. neoformans cells in 48 h
Experimental: C. neoformans cells from a culture grown overnight were washed in PBS and resuspended in YNB buffered with HEPES at pH 7.4. The cells were counted, and 2 × 10^4 cells were incubated with different concentrations of the drugs in a final volume of 10 ml with a final concentration of 0.5% DMSO. The tubes were then incubated at 37°C with 5% CO2 on a rotary shaker at 200 rpm. Aliquots were taken at the time points indicated and diluted, and 100-µl portions were plated onto YPD plates.

Caco-2 permeability = conditions: human
Experimental: (§3) The Caco-2 permeability studies were performed as follows. (i) For the preparation of Caco cells, 50-μl and 25-ml volumes of cell culture medium were added to each well of the Transwell insert and reservoir, respectively. The HTS Transwell plates then were incubated at 37°C, 5% CO2 for 1 h before cell seeding. […] (ii) For the preparation of stock solutions, 10 mM stock solutions of test compounds were prepared in DMSO. The stock solutions of positive controls were prepared in DMSO at a concentration of 10 mM. Digoxin and propranolol were used as control compounds in this assay. (iii) For the assessment of cell monolayer integrity, medium was removed from the reservoir and each Transwell insert and replaced with prewarmed fresh culture medium. Transepithelial electrical resistance (TEER) across the monolayer was measured using a Millicell epithelial volt-Ohm measuring system (Millipore, USA). The plate was returned to the incubator once the measurement was done. The TEER value was calculated according to the following equation: TEER measurement (ohms) × area of membrane (cm^2) = TEER value (ohm · cm^2). The TEER value should be greater than 230 Ω · cm^2, which indicates a well-qualified Caco-2 monolayer. (iv) The assay was performed as follows. The Caco-2 plate was removed from the incubator and washed twice with prewarmed Hanks' balanced salt solution (HBSS; with 10 mM HEPES, pH 7.4) and then incubated at 37°C for 30 min. The stock solutions of control compounds were diluted in DMSO to get 1 mM solutions and then diluted with HBSS (10 mM HEPES, pH 7.4) to get 5 μM working solutions. The stock solutions of the test compounds were diluted in DMSO to get 1 mM solutions and then diluted with HBSS (10 mM HEPES, pH 7.4) to get 5 μM working solutions. The final concentration of DMSO in the incubation system was 0.5%. To determine the rate of drug transport in the apical to basolateral direction, 75 μl of 5 μM working solution of test compound was added to the Transwell insert (apical compartment), and the wells in the receiver plate (basolateral compartment) were filled with 235 μl of HBSS (10 mM HEPES, pH 7.4). To determine the rate of drug transport in the basolateral to apical direction, 235 μl of 5 μM working solution of test compound was added to the receiver plate wells (basolateral compartment), and then the Transwell inserts (apical compartment) were filled with 75 μl of HBSS (10 mM HEPES, pH 7.4). Time zero samples were prepared by transferring 50 μl of 5 μM working solution to wells of the 96-deep-well plate, followed by the addition of 200 μl cold acetonitrile or methanol containing appropriate IS. The plates were incubated at 37°C for 2 h. At the end of the incubation, 50-μl samples from donor sides (apical compartment for AP→BL flux and basolateral compartment for BL→AP) and receiver sides (basolateral compartment for AP→BL flux and apical compartment for BL→AP) were transferred to wells of a new 96-well plate, followed by the addition of 4 volumes of cold acetonitrile or methanol containing appropriate IS. […] An aliquot of 100 μl of the supernatant was mixed with an appropriate volume of ultrapure water before LC-MS/MS analysis. To determine the Lucifer yellow leakage after a 2-h transport period, a stock solution of Lucifer yellow was prepared in ultrapure water and diluted with HBSS (10 mM HEPES, pH 7.4) to reach a final concentration of 100 μM. One hundred microliters of the Lucifer yellow solution was added to each Transwell insert (apical compartment), followed by filling the wells in the receiver plate (basolateral compartment) with 300 μl of HBSS (10 mM HEPES, pH 7.4). The plates were incubated at 37°C for 30 min, and 80-μl samples were removed directly from the apical and basolateral wells (using the basolateral access holes) and transferred to wells of new 96-well plates.

[5] = test system: Aspergillus fumigatus 293; assay: Synergistic assay (FIC), AF; assay type: cell-based
Experimental: as §1

in vitro [6] = conditions: human
Experimental: as §3

C. neoformans [7] = assay: Mouse model of cryptococcosis; assay type: in vivo, mice
C. albicans = assay: Mouse model of invasive candidiasis; assay type: in vivo, mice; conditions: oral gavage 20 mg/kg/day
Aspergillus fumigatus = assay: Mouse model of invasive pulmonary aspergillosis; assay type: in vivo, mice; conditions: oral 20 mg/kg/day
Experimental: For survival study, 8-week-old CBA/J (Envigo) male mice were used. They were divided into sets of 10 mice for each treatment or control group. The day prior to infection, the mice were immunosuppressed by using triamcinolone acetonide (1 mg/mouse) subcutaneously ([40]). On day 0, mice were infected intranasally with 20 μl of a suspension containing 2 × 10^4 conidia of A. fumigatus strain Af293 and were treated through gavage with 20 mg/kg/day of BHBM, D13, or voriconazole (as a drug control) in a final volume of 100 μl of 30% PEG in saline buffer. The untreated control group mice received 100 μl of 30% PEG in saline buffer. Mice were fed ad libitum and were given 50% grapefruit juice in place of normal drinking water to avoid the liver metabolism of the drugs ([41]). Mice were monitored every day for discomfort and sacrificed subsequently.

[8] = Cryptococcus neoformans, ChemBridge compounds, Supplementary Table 1, read-out: MIC80
[9] = lowest concentration inhibiting 80% of growth

## C[C@@H]1[C@H](O)[C@@H](C)/C=C/C=C/C=C/C=C/C=C/C=C/C=C/[C@H](O[C@@H]2O[C@H](C)[C@@H](O)[C@H](N)[C@@H]2O)C[C@@H]2O[C@](O)(C[C@@H](O)C[C@@H](O)[C@H](O)CC[C@@H](O)C[C@@H](O)CC(=O)O[C@H]1C)C[C@H](O)[C@H]2C(=O)O [AB, amphotericin B]
[1]
  MIC: 0.25 µg/mL

## Cn1c(=O)c2c(ncn2C)n(C)c1=O [Caffeine, reference compound]
In vitro [2]
  Papp at 5 min: 20 ×10⁻⁶ cm/s
  Papp at 15 min: 25 ×10⁻⁶ cm/s
  Papp at 30 min: 25 ×10⁻⁶ cm/s

## CC[C@H](C)C[C@H](C)CCCCCCCCC(=O)N[C@H]1C[C@@H](O)[C@@H](NCCN)NC(=O)[C@@H]2[C@@H](O)CCN2C(=O)[C@H]([C@H](O)CCN)NC(=O)[C@H]([C@H](O)[C@@H](O)c2ccc(O)cc2)NC(=O)[C@@H]2C[C@@H](O)CN2C(=O)[C@H]([C@@H](C)O)NC1=O [Caspo, capsofungin]
Candida albicans A39
  MIC: 0.12 µg/mL
Candida albicans 3022
  MIC: 0.06 µg/mL
Candida krusei
  MIC: 1 µg/mL
Candida krusei ATCC 6258
  MIC: 1 µg/mL

## O=C(N/N=C/c1cc(Br)ccc1O)c1cccc(Br)c1 [D2]
C. neoformans [3]; [8]
  MIC80: 0.25 µg/mL (≈ 0.628 µM)
C. neoformans [3]; [9]
  MIC80: 0.25 µg/mL (≈ 0.628 µM)
J774
  IC50: 16 µg/mL (≈ 40.2 µM)
A549
  IC50: 16 µg/mL (≈ 40.2 µM)
HepG2
  IC50: 16 µg/mL (≈ 40.2 µM)
C. neoformans [4]
  K100*: 0.12 µg/mL

## O=C(N/N=C/c1cc(Br)ccc1O)c1cc(Br)cc(Br)c1O [D17]
C. neoformans [3]; [8]
  MIC80: 0.5 µg/mL (≈ 1.01 µM)
C. neoformans [3]; [9]
  MIC80: 0.5 µg/mL (≈ 1.01 µM)
J774
  IC50: 16 µg/mL (≈ 32.5 µM)
A549
  IC50: 16 µg/mL (≈ 32.5 µM)
HepG2
  IC50: 16 µg/mL (≈ 32.5 µM)
C. neoformans [4]
  K100*: 0.5 µg/mL
C. neoformans [4]; time-kill assay
  time to kill C. neoformans: 6 h

## C[C@H]1O[C@@H](O[C@H]2[C@@H](O)C[C@H](O[C@H]3[C@@H](O)C[C@H](O[C@H]4CC[C@@]5(C)[C@H](CC[C@@H]6[C@@H]5C[C@@H](O)[C@]5(C)[C@@H](C7=CC(=O)OC7)CC[C@]65O)C4)O[C@@H]3C)O[C@@H]2C)C[C@H](O)[C@@H]1O [Digoxin, reference compound]
Caco-2 permeability; Caco-2, pH 7.4
  Papp A→B at 2 h, 5 μM: 0.61 ×10⁻⁶ cm/s
  Papp B→A at 2 h, 5 μM: 20.2 ×10⁻⁶ cm/s
Caco-2 permeability; Caco-2, pH 7.4, Efflux ratio
  efflux ratio at 2 h, 5 μM: 33.2
Caco-2 permeability; Caco-2, pH 7.4, Recovery AP→BL
  recovery at 2 h, 5 μM: 82.7%
Caco-2 permeability; Caco-2, pH 7.4, Recovery BL→AP
  recovery at 2 h, 5 μM: 95.6%

## CCC(C)n1ncn(-c2ccc(N3CCN(c4ccc(OCC5COC(Cn6cncn6)(c6ccc(Cl)cc6Cl)O5)cc4)CC3)cc2)c1=O (stereo not shown) [Itra, itraconazole]
Candida albicans A39
  MIC: 0.06 µg/mL
Candida albicans 3022
  MIC: 2 µg/mL
Candida krusei
  MIC: 1 µg/mL
Candida krusei ATCC 6258
  MIC: 1 µg/mL
[1]
  MIC: 0.06 µg/mL
[5]
  MIC: 0.25 µg/mL

## CC(C)NCC(O)COc1cccc2ccccc12 (stereo not shown) [Propranolol]
In vitro [6]; Caco-2, pH 7.4
  Papp A→B at 2 h, 5 μM: 34.4 ×10⁻⁶ cm/s
  Papp B→A at 2 h, 5 μM: 19.5 ×10⁻⁶ cm/s
  efflux ratio at 2 h, 5 μM: 0.57
In vitro [6]; Caco-2, pH 7.4, Recovery AP→BL
  recovery at 2 h, 5 μM: 90.7%
In vitro [6]; Caco-2, pH 7.4, Recovery BL→AP
  recovery at 2 h, 5 μM: 95.5%

## OC(Cn1cncn1)(Cn1cncn1)c1ccc(F)cc1F [fluconazole]
Candida albicans A39
  MIC: 2.5 µg/mL
Candida albicans 3022
  MIC: > 16 µg/mL
Candida krusei
  MIC: 16 µg/mL
Candida krusei ATCC 6258
  MIC: > 16 µg/mL
[1]
  MIC: 2.5 µg/mL
[5]
  MIC: > 10 µg/mL
C. neoformans [7]; i.p. 1.2 mg/kg/day, treatment immediately after intranasal infection, 40 days
  mice that survived: 60%
C. neoformans [7]; i.p. 1.2 mg/kg/day, treatment started 5 days after infection
  mice that survived until the end of the experiment: 20%
C. neoformans [7]; oral 20 mg/kg/day starting the day of infection
  mice that survived until the end of the experiment: 20%
C. neoformans [7]; oral 20 mg/kg/day, 32 days posttreatment, data not shown
  CFU in brains and lungs: numerous colonies in the lungs and brain
C. albicans
  time within which mice died: ≤ 12 days

## C[C@@H](c1ncncc1F)[C@](O)(Cn1cncn1)c1ccc(F)cc1F [voriconazole, reference compound]
[1]
  MIC: 4 µg/mL
[5]
  MIC: 1 µg/mL
Aspergillus fumigatus; at the endpoint, data not shown
  lung fungal burden (CFU) of surviving mice: showed evidence of colonies
Aspergillus fumigatus; immunosuppressed mice, after 15 days
  mice that survived: 40%
